Experimental data reported in patent US5618726A, “Biodegradable azo dyes” (priority 1994, dated 1997).

Key:
[1] = system: S. chromofuscus A11 extracellular peroxidase; test: Oxidation of azo dyes by S. chromofuscus A11 crude enzyme preparation; type: biochemical, Streptomyces chromofuscus A11; conditions: pH 8, 37° C., H2O2
Procedure, shortened: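 Enzyme from 48 h S. chromofuscus A11 culture supernatant, concentrated, ammonium sulfate-precipitated, dialyzed in 20 mM HEPES pH 8; yellow Sephadex G-25 fraction used. Reaction started with 100 μl 50 mM H2O2, followed 1 min at 37° C; controls without H2O2 or with 25 μM KCN.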

ligninase = test: Oxidation of dyes by P. chrysosporium ligninase (crude preparation); type: biochemical, Phanerochaete chrysosporium; conditions: for Oxidation rate of azo dyes, P. chrysosporium Ligninase: crude enzyme, conditions specific for ligninase
Procedure, shortened: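 Crude P. chrysosporium ligninase oxidation of dyes, assayed by a previously reported method; conditions as for acid yellow 9, readings every 30 s for up to 15 minutes.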

[2] = target: T1, horseradish peroxidase type II (Armoracia rusticana, UniProt P00433); test: Oxidation of azo dyes by horseradish peroxidase preparation; type: biochemical; conditions: pH 8, 37° C., H2O2
T1 sequence (P00433 31-338): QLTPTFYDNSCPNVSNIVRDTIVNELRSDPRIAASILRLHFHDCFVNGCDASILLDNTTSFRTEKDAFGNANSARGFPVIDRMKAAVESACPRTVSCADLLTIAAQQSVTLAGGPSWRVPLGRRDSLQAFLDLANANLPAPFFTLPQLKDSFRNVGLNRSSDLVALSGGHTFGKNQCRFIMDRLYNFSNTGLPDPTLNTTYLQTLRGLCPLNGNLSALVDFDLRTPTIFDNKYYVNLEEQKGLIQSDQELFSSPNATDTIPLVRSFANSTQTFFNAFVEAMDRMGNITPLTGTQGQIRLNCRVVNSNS
Experimental: The reaction was started with the addition of 100 μl of 50 mM H2 O2 and was followed for 1 min at 37° C. Controls were run with no addition of H2 O2 or with the addition of the hemeperoxidase inhibitor KCN (final concentration 25 μM).

S. diastaticus A12 = type: cell-based; conditions: streptomyces diastaticus a12 culture, 336 h
Text: (§1) Microbiol., 1984, 130:2905-2913.
(§2) Replicate sterile controls also were run in each experiment.

S. rochei A10 = type: cell-based; conditions: streptomyces rochei a10 culture, 336 h
Text: as §1, §2

S. diastaticus A13 = type: cell-based; conditions: streptomyces diastaticus a13 culture, 336 h
Text: as §1, §2

Mn(II)-peroxidase = test: Oxidation of dyes by P. chrysosporium Mn(II)-peroxidase; type: biochemical, Phanerochaete chrysosporium; conditions: crude enzyme, conditions specific for Mn(II)-peroxidase
[3] = system: Phanerochaete chrysosporium; test: Substrate removal / decolorization by P. chrysosporium culture; type: cell-based; conditions: for % Decolorization, P. chrysosporium: 14 days
Experimental: Environ. Microbiol., 1981, 42:290-296), with the addition of 75 mg adenine (6-aminopurine) and 27 mg L-phenylalanine-per-liter. This addition accelerated the growth of the fungus without inhibiting ligninase activity. […] […] Cultures were incubated at 37° C. for 7 to 15 days with shaking (250 rpm). Solid agar media were also employed.

S. chromofuscus A11 = conditions: for Decolorization of growth medium by S. chromofuscus A11: both 50 and 100 ppm; for Degradation (%) after Streptomyces cultivation, strain A11: streptomyces chromofuscus a11 culture, 336 h
Experimental: as §1, §2
The Streptomyces were grown on the same media and under the same conditions as previously described. […] Thus, the spectrophotometric assays for substrates 1-12 were carried out at their specific isobastic points. Degradation was calculated as percent of substrates removed from culture broth, considering the evaporation factor (around 10%).

[4] = system: lignin peroxidase (ligninase, LiP); test: Oxidation of azo dyes and veratryl alcohol by pure lignin peroxidase; type: biochemical, Phanerochaete chrysosporium; conditions: absorption change per-min-per-ml of ligninase solution, 310 nm
Experimental: Lignin peroxidase activity was determined spectrophotometrically at room temperature with VA as substrate. One unit (U) of enzyme activity was defined as 1 μmole of veratryl aldehyde formed-per-min at pH 3. Simultaneous oxidations of azo dyes and veratryl alcohol were measured using a Hewlett-Packard 8452 diode array spectrophotometer operated in the kinetic mode by a Vectra PC equipped with MS™-DO/UV-VIS software. Azo dye concentrations were determined by measuring absorbances at appropriate maxima.
After six days of growth, when the specific activity of ligninase reached about 250 U-per-liter, culture filtrates were separated from mycelial debris by filtration. One liter of culture filtrate was concentrated to about 10 ml using an Amicon PM-10 membrane and desalted in 10 mM sodium acetate buffer (pH 6) using a Sephadex G25 NAP10 column. Ligninase isoenzyme was separated from Mn-dependent peroxidases using a Pharmacia fast protein liquid chromatography system equipped with a Mono Q HR 5/5 column. In this study isoforms H2 and H8 were used.
In vitro studies were limited to dyes 24 and 28. […] FIGS. 6A and 7A show the simultaneous oxidation of azo dyes 24 and 28, respectively, and VA by ligninase. Without VA, azo dye oxidation was limited and terminated more rapidly than in the presence of VA (FIGS. 6B and 7B). When a dye was present in a reaction mixture, the rate of VA oxidation decreased due to an apparent competition for LiPI between these two compounds. The oxidation rate of VA recovered when the azo dye oxidation was completed (FIG. 8). The maximal rate of VA oxidation was about 159 AU (absorption change per-min-per-ml of ligninase solution). Wavelengths of 310 nm for VA, 506 nm for dye 24, and 430 nm for dye 28 oxidations were used in monitoring substrate removal. The oxidation of azo dyes is stimulated by VA in high (200 μM) and low (20 μM) H2 O2 concentrations.

[5] = beginning concentration 100 ppm
[6] = beginning concentration 150 ppm
[7] = beginning concentration 200 ppm
[8] = beginning concentration 300 ppm

| Structure (SMILES) | Oxidation rate of azo dyes, S. chromofuscus peroxidase [1] [μmoles per minute per ml] | Oxidation rate of azo dyes, P. chrysosporium Ligninase (ligninase) [μmoles per minute per ml] | Oxidation rate of azo dyes, Horseradish peroxidase [2] [μmoles per minute per ml] | Degradation (%) after Streptomyces cultivation, strain A12 (S. diastaticus A12) [%] | Degradation (%) after Streptomyces cultivation, strain A10 (S. rochei A10) [%] | Degradation (%) after Streptomyces cultivation, strain A13 (S. diastaticus A13) [%] | Oxidation rate of azo dyes, P. chrysosporium Mn-peroxidase (Mn(II)-peroxidase) [μmoles per minute per ml] | % Decolorization, P. chrysosporium ([3]; initial concn 150 ppm) [%] | % Decolorization, P. chrysosporium ([3]; initial concn 300 ppm) [%] | Degradation (%) after Streptomyces cultivation, strain A11 (S. chromofuscus A11) [%] | Oxidation / decolorization by ligninase (ligninase; pH3, 0.2 mM hydrogen peroxide, 15-minute incubation) | Degradation by Phanerochaete fungus ([3]; growth period of seven days, starting dye 150-200 ppm (FIG. 3), 10080 min) [%] | Concentration of substrate after ten days cultivation with P. chrysosporium [3, 5] [ppm] | Concentration of substrate after ten days cultivation with P. chrysosporium [3, 6] [ppm] | Concentration of substrate after ten days cultivation with P. chrysosporium [3, 7] [ppm] | Concentration of substrate after ten days cultivation with P. chrysosporium [3, 8] [ppm] | Decolorization of growth medium by S. chromofuscus A11 (S. chromofuscus A11) | Maximal rate of VA oxidation by ligninase [4] |
| --- | --- | --- | --- | --- | --- | --- | --- | --- | --- | --- | --- | --- | --- | --- | --- | --- | --- | --- |
| Cc1cc(N=Nc2ccc(S(=O)(=O)O)cc2)cc(C)c1O [compound 3] | 17.20 | 0.42 | 30.68 | 39 | 68 | 10 | 16.37 | 96 | 97 | 73 |  |  | 0.358 | 1.223 | 1.894 | 114.772 | significantly decolorized |  |
| COc1ccc(CO)cc1OC [Veratryl alcohol, 3,4-dimethoxy benzyl alcohol, reference compound] |  |  |  |  |  |  |  |  |  |  |  |  |  |  |  |  |  | about 159 AU |
| O=S(=O)(O)c1ccc(N=Nc2ccc(O)c(Cl)c2)cc1 [compound 13] | 0.13 | 0.88 | 0.10 | 1 | 2 | 1 | 0.26 | 92 | 88 | 5 |  |  | 7.734 | 20.776 | 28.216 | 20.096 |  |  |
| COc1cc(N=Nc2ccc(S(=O)(=O)O)cc2)ccc1O [compound 2] | 3.68 | 0.72 | 18.19 | 43 | 77 | 18 | 8.19 | 97 | 94 | 73 | not detected | 90 | 2.493 | 6.350 | 10.068 | 7.318 |  |  |

More lines, main results first:

| Oxidation rate of azo dyes, S. chromofuscus peroxidase [1] [μmoles per minute per ml] | Oxidation rate of azo dyes, P. chrysosporium Ligninase (ligninase) [μmoles per minute per ml] | Oxidation rate of azo dyes, Horseradish peroxidase [2] [μmoles per minute per ml] | Degradation (%) after Streptomyces cultivation, strain A12 (S. diastaticus A12) [%] | Degradation (%) after Streptomyces cultivation, strain A10 (S. rochei A10) [%] | Degradation (%) after Streptomyces cultivation, strain A13 (S. diastaticus A13) [%] | Oxidation rate of azo dyes, P. chrysosporium Mn-peroxidase (Mn(II)-peroxidase) [μmoles per minute per ml] | % Decolorization, P. chrysosporium ([3]; initial concn 150 ppm) [%] | % Decolorization, P. chrysosporium ([3]; initial concn 300 ppm) [%] | Degradation (%) after Streptomyces cultivation, strain A11 (S. chromofuscus A11) [%] | Oxidation / decolorization by ligninase (ligninase; pH3, 0.2 mM hydrogen peroxide, 15-minute incubation) | Degradation by Phanerochaete fungus ([3]; growth period of seven days, starting dye 150-200 ppm (FIG. 3), 10080 min) [%] | Structure (SMILES) | Concentration of substrate after ten days cultivation with P. chrysosporium [3, 5] [ppm] | Concentration of substrate after ten days cultivation with P. chrysosporium [3, 6] [ppm] | Concentration of substrate after ten days cultivation with P. chrysosporium [3, 7] [ppm] | Concentration of substrate after ten days cultivation with P. chrysosporium [3, 8] [ppm] | Decolorization of growth medium by S. chromofuscus A11 (S. chromofuscus A11) | Maximal rate of VA oxidation by ligninase [4] |
| --- | --- | --- | --- | --- | --- | --- | --- | --- | --- | --- | --- | --- | --- | --- | --- | --- | --- | --- |
| 2.00 | 0.00 | 11.94 | 3 | 9 | 8 | 3.54 | 90 | 87 | 20 |  |  | Cc1cc(N=Nc2ccc(S(=O)(=O)O)cc2)ccc1O [compound 5] | 6.084 | 9.870 | 14.500 | 22.680 | significantly decolorized |  |
| 0.17 | 0.75 | 0.12 | 1 | 2 | 1 | 0.23 | 38 | 27 | 3 |  |  | CCN(CC)c1ccc(N=Nc2ccc(S(=O)(=O)O)cc2)cc1 [compound 15] | 1.901 | 10.589 | 17.931 | 17.791 |  |  |
| 0.78 | 0.51 | 0.35 | 7 | 11 | 6 | 2.86 | 90 | 92 | 16 |  |  | CCC(C)c1cc(N=Nc2ccc(S(=O)(=O)O)cc2)ccc1O (stereo not drawn) [compound 10] | 8.135 | 15.279 | 46.588 | 42.897 | significantly decolorized |  |
